Assay results: patent US6764826B2, “Inhibitors of C-reactive protein induced inflammation” (Board of Regents, The University of Texas System, priority 2000, dated 2004)
“Also recorded” adds a separate entry of the source.

What was measured:
MCP-1 Induction by CRP = test: Modulation of CRP effects by statin, aspirin and PPAR activators: MCP-1 secretion in HUVEC, sandwich ELISA; format: cell-based, human; conditions: for effect on induction of MCP-1 by CRP (in words): test substance 10 μM
Method: Experiments were performed in HUVEC. […] After 2 hours, the cells were incubated with C-reactive protein or with IL-1β 10 ng/mL for 24 hours. […] Secretion of MCP-1 and RANTES were assessed by sandwich ELISA (Colorimetric Quantikine, by R and D Systems). All determinations were performed in duplicate. Data were expressed as mean±SD of 5-6 separate experiments. Cell viability was assessed by staining with trypan blue.

[1] = test system: human umbilical vein endothelial cells (HUVEC); test: Adhesion molecule expression in HUVEC by FACS, in the presence of serum; format: cell-based
Method: All experiments were performed on human umbilical vein endothelial cells (HUVEC, from Cascade Biology). HUVEC were grown in M199 medium with endothelial cell growth supplement, heparin and 15% fetal bovine serum or human serum. Cells were used at passage 2 to 4.
(§1) HUVEC were incubated with human C-reactive protein at the concentration indicated for 24 hours. Cells were detached by incubation with 10 mmol/L EDTA in PBS (without trypsin), washed with PBS buffer and suspended in PBS with 1% FBS and 0.1% sodium azide. Cell were then stained with R-Phycoerythrin labeled monoclonal antibodies (Pharmingen) against the adhesion molecules VCAM-1 (CD106) or ICAM-1 (CD54) or with Phycoerythrin labeled isotype IgG as control. For detection of E-selectin, HUVEC were incubated for 6 hours with C-reactive protein and then stained with a FITC labeled monoclonal antibody against E-selectin (RandD Systems) or the appropriate isotype control (Pasceri et al., 2000). R-Phycoerythrin labeled monoclonal antibodies (Pharmingen) against the C-reactive protein receptors FCγRI and FCγRII (Marnell et al., 1995; Bharadwaj et al., 1999) were also used.
(§2) The staining procedure was performed on ice for 30 minutes, followed by washing. The fluorescence intensity of 9000 cells for each sample was quantified by a FACS CaliburTM analyser (Becton Dickinson). All experiments were performed in triplicate.

[2] = test system: human umbilical vein endothelial cells (HUVEC); test: Adhesion molecule expression in HUVEC by FACS, serum-free medium; format: cell-based
Method: as §1, with “protein similar to Example 2 except in” for “protein at”, “the absence of serum.” for “the concentration indicated for 24 hours.”, “with” for “with 1% FBS and”
as §2

HUVEC [3] = test: MCP-1 secretion by HUVEC, sandwich ELISA; format: cell-based, human
Method: (§3) Experiments were performed in HUVEC, cultured in 12-well plates in basic endothelial cell medium CS-C, with 10 mM HEPES and 15% human serum (Sigma). Culture supernatants were collected 6-24 hours after stimulation with either IL-1β or CRP, at the concentration indicated. Secretion of MCP-1 and RANTES were assessed by sandwich ELISA (Colorimetric Quantikine, by R and D Systems). All determinations were performed in duplicate. Data were expressed as mean±SD of 5-6 separate experiments. Cell viability was assessed by staining with trypan blue.

HUVEC [4] = test: RANTES secretion by HUVEC, sandwich ELISA; format: cell-based, human
Method: as §3

[5] = test system: human umbilical vein endothelial cells (HUVEC); test: Adhesion molecule expression in HUVEC by FACS, in the presence of serum; format: cell-based; conditions: 24-hour incubation, HUVEC with human serum
[6] = CRP 100 μg/mL + test substance 10 μmol/L
[7] = CRP 100 μg/mL + test substance 100 μmol/L
[8] = CRP 100 μg/mL + test substance 1 mmol/L
[9] = Homo sapiens, HUVEC, CRP 100 μg/mL + test substance 100 μmol/L
[10] = CRP 100 μg/mL + test substance 50 μmol/L
[11] = CRP 100 μg/mL + test substance 200 μmol/L
[12] = CRP 100 μg/mL + test substance 20 μmol/L
[13] = C-reactive protein 10 μg/mL, 24-hour incubation, HUVEC with human serum

With CCCCC/C=C/C=C1/C(=O)C=C[C@@H]1C/C=C\CCCC(=O)O [15d-PGJ2, 15-deoxy-^Δ12,14-prostaglandin J2] the “% of Maximal Response” value (MCP-1 Induction by CRP; [6]) was 24%, the “-Fold Increase in MCP-1 conc.” value (MCP-1 Induction by CRP; [6]) was 1.5 ± 0.6 -Fold and the MCP-1 conc. (MCP-1 Induction by CRP; [6]) was 3.4 ± 1.6 ng/mL. The “effect on induction of MCP-1 by CRP (in words)” value (MCP-1 Induction by CRP) was “almost completely abolished”.

With Cc1cccc(Nc2cc(Cl)nc(SCC(=O)O)n2)c1C [Wy 14649] the “% of Maximal Response” value (MCP-1 Induction by CRP; [6]) was 101%, the “-Fold Increase in MCP-1 conc.” value (MCP-1 Induction by CRP; [6]) was 6.4 ± 2.1 -Fold and the MCP-1 conc. (MCP-1 Induction by CRP; [6]) was 13.9 ± 6.0 ng/mL. For the same molecule, the “% of Maximal Response” value (MCP-1 Induction by CRP; [7]) was 30%, the “-Fold Increase in MCP-1 conc.” value (MCP-1 Induction by CRP; [7]) was 1.9 ± 0.9 -Fold and the MCP-1 conc. (MCP-1 Induction by CRP; [7]) was 4.2 ± 2.2 ng/mL. The “effect on induction of MCP-1 by CRP (in words)” value (MCP-1 Induction by CRP) was “no effect” and the “effect on secretion of MCP-1 induced by CRP (in words)” value (MCP-1 Induction by CRP; test substance 100 μM) was “completely inhibited”.

For CC(=O)Oc1ccccc1C(=O)O [aspirin], the “-Fold Increase in MCP-1 conc.” value (MCP-1 Induction by CRP; [7]) was 6.7 ± 1.9 -Fold, the MCP-1 conc. (MCP-1 Induction by CRP; [7]) was 14.6 ± 6.7 ng/mL and the “-Fold Increase in MCP-1 conc.” value (MCP-1 Induction by CRP; [8]) was 6.4 ± 1.8 -Fold. It also gave an MCP-1 conc. (MCP-1 Induction by CRP; [8]) of 13.7 ± 6.7 ng/mL, an MCP-1 secretion, % of maximal CRP-induced response at 100 µM (MCP-1 Induction by CRP; [9]) of 104% and an MCP-1 secretion, % of maximal CRP-induced response at 1000 µM (MCP-1 Induction by CRP; Homo sapiens, HUVEC, CRP 100 μg/mL + test substance 1 mmol/L) of 102%. The “effect on the effects of C-reactive protein (MCP-1 induction, in words)” value (MCP-1 Induction by CRP; high concentration, up to 1 mM) was “did not inhibit”.

CC1(COc2ccc(CC3SC(=O)NC3=O)cc2)CCCCC1 (stereo not shown) [ciglitazone] was tested, and the “-Fold Increase in MCP-1 conc.” value (MCP-1 Induction by CRP; [10]) was 4.8 ± 1.5 -Fold, the MCP-1 conc. (MCP-1 Induction by CRP; [10]) was 10.2 ± 4.6 ng/mL and the “-Fold Increase in MCP-1 conc.” value (MCP-1 Induction by CRP; [7]) was 4.1 ± 1.0 -Fold. For the same molecule, the MCP-1 conc. (MCP-1 Induction by CRP; [7]) was 8.7 ± 3.4 ng/mL, the “-Fold Increase in MCP-1 conc.” value (MCP-1 Induction by CRP; [11]) was 2.7 ± 0.8 -Fold and the MCP-1 conc. (MCP-1 Induction by CRP; [11]) was 5.9 ± 2.5 ng/mL. It also gave an MCP-1 secretion, % of maximal CRP-induced response at 50 µM (MCP-1 Induction by CRP; Homo sapiens, HUVEC, CRP 100 μg/mL + test substance 50 μmol/L) of 74%, an MCP-1 secretion, % of maximal CRP-induced response at 100 µM (MCP-1 Induction by CRP; [9]) of 65% and an MCP-1 secretion, % of maximal CRP-induced response at 200 µM (MCP-1 Induction by CRP; Homo sapiens, HUVEC, CRP 100 μg/mL + test substance 200 μmol/L) of 42%.

For CC(C)OC(=O)C(C)(C)Oc1ccc(C(=O)c2ccc(Cl)cc2)cc1 [fenofibrate], the “-Fold Increase in MCP-1 conc.” value (MCP-1 Induction by CRP; [7]) was 0.9 ± 0.2 -Fold, the MCP-1 conc. (MCP-1 Induction by CRP; [7]) was 2.1 ± 0.6 ng/mL and the MCP-1 secretion, % of maximal CRP-induced response at 100 µM (MCP-1 Induction by CRP; [9]) was 15%.

In the case of Cc1c(C)c2c(c(C)c1O)CCC(C)(COc1ccc(CC3SC(=O)NC3=O)cc1)O2 (stereo not shown) [troglitazone], the “-Fold Increase in MCP-1 conc.” value (MCP-1 Induction by CRP; [12]) is reported as 5.2 ± 1.7 -Fold, the MCP-1 conc. (MCP-1 Induction by CRP; [12]) is reported as 11.4 ± 5.2 ng/mL and the MCP-1 secretion, % of maximal CRP-induced response at 20 µM (MCP-1 Induction by CRP; Homo sapiens, HUVEC, CRP 100 μg/mL + test substance 20 μmol/L) is reported as 83%.

For “interleukin-1: Interleukin-1 provided by RandD systems; a well known activator of endothelial cells”, the “induction of adhesion molecules expression compared with C-reactive protein 10 μg/mL” value ([1]; interleukin-1 10 ng/mL, same time-intervals (24-hour; 6-hour for E-selectin), HUVEC with human serum) was “similar”, the “expression of adhesion molecules” value ([2]; interleukin-1, serum-free medium) was “able to induce adhesion molecules” and the “MCP-1 response in absence of serum” value (HUVEC [3]; IL-1β, serum-free medium) was “absence of serum did not change the response”. The MCP-1 concentration (HUVEC [3]; Interleukin-1β 10 ng/mL, 15% human serum) was 8.6 ± 3.7 ng/mL, the RANTES expression (HUVEC [4]; Interleukin-1β 10 ng/mL) was “did not induce” and the E-selectin expression [5] was “no increase”.

B1: CRP: Recombinant human C-reactive protein purchased from Biochem; acute phase reactant protein (protein, UniProt P02741 19-224, looked up)
C-reactive protein: QTDMSRKAFVFPKESDTSYVSLKAPLTKPLKAFTVCLHFYTELSSTRGYSIFSYATKRQDNEILIFWSKDIGYSFTVGGSEILFEVPEVTVAPVHICTSWESASGIVEFWVDGKPRVRKSLKKGYTVGAEASIILGQEQDSFGGNFEGSQSLVGDIGNVNMWDFVLSPDEINTIYLGGPFSPNVLNWRALKYEVQGEVFTKPQLWP
With B1 the E-selectin expression ([1]; C-reactive protein 10 μg/mL, 6-hour incubation, HUVEC with human serum) was “significant increase”, the ICAM-1 expression [1, 13] was “large increase” and the VCAM-1 expression [1, 13] was “significant increase”. The VCAM-1 expression ([1]; C-reactive protein 10 μg/mL, 24-hour incubation, HUVEC with human serum, listed as recombinant C-reactive protein) was “large increase”, the “further increase in adhesion molecules expression on increase of concentration” value ([1]; C-reactive protein up to 100 μg/mL, compared with 10 μg/mL, 4th passage cells, 15% human serum) was “only a modest further increase” and the “further adhesion molecules induction on increase of concentration” value ([1]; C-reactive protein up to 200 μg/mL, compared with 10 μg/mL) was “only a modest further adhesion molecules induction”. The “C-reactive protein concentration at which adhesion molecule expression is nearly maximum” value ([1]; dose response, HUVEC with 15% human serum) was 10 µg/mL, the “expression of adhesion molecules (ICAM-1, VCAM-1, E-selectin)” value ([2]; C-reactive protein 100 μg/mL, 24-hour (6-hour for E-selectin), serum-free medium) was “could not induce; also recorded: did not induce” and the “CRP concentration already giving significant induction of MCP-1” value (HUVEC [3]; 24-hour incubation, 15% human serum) was 5 µg/mL. For the same molecule, the MCP-1 concentration (HUVEC [3]; CRP 10 μg/mL, 24-hour incubation, 15% human serum, baseline 1.1±0.5) was 2.4 ± 0.9 ng/mL, the MCP-1 concentration (HUVEC [3]; CRP 100 μg/mL (peak), 24-hour incubation, 15% human serum) was 9.7 ± 4.8 ng/mL and the MCP-1 concentrations (HUVEC [3]; CRP 100 μg/mL, 24-hour, serum-free medium) was “did not induce a significant increase”. For the same molecule, the “fold-increase of MCP-1 secretion” value (HUVEC [3]; CRP 100 μg/mL, 24-hour, versus human albumin 100 μg/mL, 15% human serum) was 7 fold-increase, the “Secretion of RANTES” value (HUVEC [4]; C-reactive protein 100 μg/mL, 15% human serum) was “not increased” and the “% of Maximal Response” value (MCP-1 Induction by CRP; CRP 100 μg/mL alone, 24 hours) was 100%. For the same molecule, the “-Fold Increase in MCP-1 conc.” value (MCP-1 Induction by CRP; CRP 100 μg/mL alone, 24 hours) was 6.3 ± 1.8 -Fold, the MCP-1 conc. (MCP-1 Induction by CRP; CRP 100 μg/mL alone, 24 hours) was 13.6 ± 5.4 ng/mL and the E-selectin expression [5] was “no increase”.
